Test results from patent US20190059368A1, “3,5-DIMETHOXYSTILBENE ANALOGS AND USES THEREOF” (The United States of America, as represented by the …, priority 2017, published 2019).
≈ marks a conversion by molar mass, not a printed value.

Key:
[1] = test system: Cryptococcus neoformans ATCC 90113; experiment: Antimicrobial microplate assay (modified CLSI); type: cell-based; settings: Cr. neoformans
Description: (§1) All organisms were obtained from the American Type Culture Collection (ATCC; Manassas, Va., USA) and included the fungi Cryptococcus neoformans ATCC 90113 and the bacteria Staphylococcus aureus ATCC 29213, methicillin-resistant S. aureus ATCC 33591 (MRSA), and Mycobacterium intracellulare ATCC 23068. All organisms were tested using modified versions of the CLSI (formerly NCCLS) methods. For all organisms excluding My. intracellulare, optical density was used to monitor growth. Medium supplemented with 5% AlamarBlue® (BioSource International, Camarillo, Calif., USA) was utilized for growth detection of My. intracellulare. Samples (dissolved in DMSO) were serially diluted in 20% DMSO/saline and transferred (10 μl) in duplicate to 96-well flat-bottom microplates. Inocula were prepared by correcting the OD630 of microbe suspensions in Sabouraud Dextrose for Cr. neoformans, cation-adjusted Mueller-Hinton (Difco) at pH 7.3 for Staphylococcus spp., and 5% AlamarBlue® (BioSource International) in Middlebrook 7H9 broth with OADC enrichment, pH=7.0 for My. intracellulare, to afford an assay volume of 200 μl and final target inocula of: Cr. neoformans.: b 1.5×10^3, My. intracellulare: 2.0×10^6, and Staphylococcus spp.,: 5.0×10^5 CFU/ml. Final sample test concentrations were 1/100th the DMSO stock concentration. Drug controls (Ciprofloxacin (ICN Biomedicals, Ohio, USA) for bacteria and Amphotericin B (ICN Biomedicals) for fungi) were included in each assay. All organisms were read at either 530 nm using the Biotek Powerwave XS plate reader (Bio-Tek Instruments, VT) or 544ex1590em (My. intracellulare) using the Polarstar Galaxy Plate Reader (BMG LabTechnologies, Germany) before and after incubation: Staphylococcus spp. at 35° C. for 16-20 h, Cr. neoformans at 35° C. for 70-74 h, and My. intracellulare at 37° C. and 10% CO2 for 70-74 h. IC50 Values (concentrations that afford 50% inhibition relative to controls) werecalculated using XLfit 4.2 software (IDBS, Alameda, Calif.) using fit model 201.

Colletotrichum acutatum = experiment: Direct bioautography, antifungal; type: cell-based; settings: 2 mM, 4 μl spotted (2 μl of the positive controls), average of 2 assays; for zone of inhibition at 2000 µM: Colletotrichum acutatum, read-out: zones of inhibition
Description: (§2) The analogs were tested for activity against Colletotrichum acutatum SIMMONDS, C. fragariae BROOKS, and C. gloeosporioides (PENZ) PENZ & SACC. in Penz., using a direct bioautography method as previously described by Tabanca et al. (Nat. Prod. Commun. 2008, 3, 1073) and Wang, et al. (J. Agric. Food Chem. 2013, 61, 4551). Technical grade commercial fungicide standards benomyl, cyprodinil, azoxystrobin, and captan were used at 0.9-1.61 μg/μl concentrations in 95% EtOH. After sample application, each TLC plate was subsequently sprayed with a spore suspension (3.0×10^5 spores/ml) of the fungus of interest and incubated in a moisture chamber for 4 days at 26° C. with a 12 hour photoperiod. Clear zones of fungal growth inhibition on the TLC plate indicated the presence of antifungal constituents in each extract or pure compound. The test compounds were prepared at 2 mM soln. in 95% EtOH, and 4 μl were spotted on the plates (2 μl of the positive controls).

C. fragariae = experiment: Direct bioautography, antifungal; type: cell-based, Colletotrichum fragariae; settings: 2 mM, 4 μl spotted (2 μl of the positive controls), average of 2 assays; for zone of inhibition at 2000 µM: Colletotrichum fragariae, read-out: zones of inhibition
Description: as §2

C. gloeosporioides = experiment: Direct bioautography, antifungal; type: cell-based, Colletotrichum gloeosporioides; settings: 2 mM, 4 μl spotted (2 μl of the positive controls), average of 2 assays; for zone of inhibition at 2000 µM: Colletotrichum gloeosporioides, read-out: zones of inhibition
Description: as §2

[2] = test system: Meloidogyne incognita second-stage juveniles (J2); experiment: M. incognita assay with previously hatched J2 immersed in test solutions; settings: in vivo
Description: (§3) Two types of assays were used to investigate activity against M. incognita: i) eggs were immersed in solutions of the test compounds, and ii) second-stage juveniles (J2) previously hatched from eggs were immersed in the test solutions. These assays were conducted with procedures similar to those in Meyer, et al. (J. Nematol. 2006, 38, 333). M. incognita race 1 (originally isolated in 2013 from a field in Maryland) was grown in the greenhouse on pepper (Capsicum annuum L.) cultivar PA-136. Egg masses were hand-picked from plant roots, rinsed three times with sterile distilled H2O, and agitated in 0.6% NaClO for 3.5 minutes to separate and surface-sterilize eggs. The eggs were rinsed in sterile distilled H2O and stored overnight at 4° C. before use in egg immersion assays. To collect J2 for direct immersion into the test compounds, sterilized eggs were placed into a hatching chamber made with a Spectra/Mesh Nylon Filter (openings 25 μm in diameter; Spectrum Laboratories Inc., Rancho Dominguez, Calif., USA) in an autoclaved dish. J2 that passed through the filter within 3 days were used immediately for assays.
The assays were conducted in 96-well polystyrene plates. For the assays with immersed eggs, each well received approximately 50 eggs in 35 μl of sterile deionized water (SDW). For assays with previously hatched J2, a suspension of approximately 50 J2 in 35 μl of SDW was placed into each well. Each well then received 165 μl of treatment or control. The solvent used to dissolve the test chemicals was a 1:1:1 mixture referred to herein as CTD: equal parts Cremophor® EL Castor Oil (BASF Corporation, Vandalia, Ill., USA), Tween 80® (Sigma-Aldrich, St. Louis, Mo., USA), and DMSO (Sigma-Aldrich). A high and low rate of each compound was tested. After addition to the nematode suspensions in the wells, the low and high rates were 83.3 and 166.7 μg/ml of each test compound, respectively, dissolved in 0.5% and 1.0% of each of the three combined solvents. Controls were CTD equivalent to the low and high rates, and SDW. Because of the large number of treatments, the test compounds were divided into two groups for the egg immersion assays. The compounds tested in the egg immersion Assay 1 were 3, 6a, 6e, 6f, 6g, 6n, 7a, 7c, 7e, 7f, 7n, 11, 12, 16, and 17. The compounds tested in the egg immersion Assay 2 were 6b, 6h, 6i, 6j, 6k, 6l , 7b, 7g, 7h, 7i, 7j, 7k, 7l, and 7m (data not shown). Test compounds used for assays with previously hatched J2 were selected based on results with the egg assays. […]
Each polystyrene culture plate was covered with a plastic adhesive sheet (Excel Scientific, Inc., Victorville, Calif., USA) and incubated at 25° C. […] In egg immersion assays, total numbers of hatched J2, and numbers of mobile and immobile J2, were counted after 2 and 7 days incubation in the test compounds. In the first assay with previously hatched J2, the numbers of mobile and immobile J2 were counted after 1 and 2 days incubation, the treatments removed and replaced with a SDW rinse, and 2 days later the mobile vs. immobile J2 counted again. […]
Data from the M. incognita assays were analyzed with the statistical package JMP 11.2.0 (SAS Institute, Cary, N.C., USA). Differences among numbers of hatched J2 in each treatment, and among percentage of mobile J2 per treatment (number mobile J2/total J2×100), were determined by the ANOVA, and means were compared using Tukey Kramer's adjustment for multiple comparisons (P<0.05). […]

[3] = test system: Meloidogyne incognita eggs; experiment: M. incognita egg immersion assay (hatch and mobility of hatched J2); type: in vivo; settings: for Percent mobile J2, assay 1: 7 days; for effect on mobility of J2 hatched from eggs immersed in solutions (in words): in vivo
Description: as §3
The assays were conducted in 96-well polystyrene plates. For the assays with immersed eggs, each well received approximately 50 eggs in 35 μl of sterile deionized water (SDW). For assays with previously hatched J2, a suspension of approximately 50 J2 in 35 μl of SDW was placed into each well. Each well then received 165 μl of treatment or control. The solvent used to dissolve the test chemicals was a 1:1:1 mixture referred to herein as CTD: equal parts Cremophor® EL Castor Oil (BASF Corporation, Vandalia, Ill., USA), Tween 80® (Sigma-Aldrich, St. Louis, Mo., USA), and DMSO (Sigma-Aldrich). A high and low rate of each compound was tested. After addition to the nematode suspensions in the wells, the low and high rates were 83.3 and 166.7 μg/ml of each test compound, respectively, dissolved in 0.5% and 1.0% of each of the three combined solvents. Controls were CTD equivalent to the low and high rates, and SDW. Because of the large number of treatments, the test compounds were divided into two groups for the egg immersion assays. The compounds tested in the egg immersion Assay 1 were 3, 6a, 6e, 6f, 6g, 6n, 7a, 7c, 7e, 7f, 7n, 11, 12, 16, and 17. The compounds tested in the egg immersion Assay 2 were 6b, 6h, 6i, 6j, 6k, 6l , 7b, 7g, 7h, 7i, 7j, 7k, 7l, and 7m (data not shown). Test compounds used for assays with previously hatched J2 were selected based on results with the egg assays. The five compounds tested were 6b, 6f, 6g, 6i, and 7k, high and low rates.
Each polystyrene culture plate was covered with a plastic adhesive sheet (Excel Scientific, Inc., Victorville, Calif., USA) and incubated at 25° C. Ten wells (water controls) or five wells (all other treatments) were used per treatment in each assay. In egg immersion assays, total numbers of hatched J2, and numbers of mobile and immobile J2, were counted after 2 and 7 days incubation in the test compounds. In the first assay with previously hatched J2, the numbers of mobile and immobile J2 were counted after 1 and 2 days incubation, the treatments removed and replaced with a SDW rinse, and 2 days later the mobile vs. immobile J2 counted again. In assays with 6g and 7k, high rates and counts were made on Days 1, 2, 4, and 6, without a SDW rinse.
Data from the M. incognita assays were analyzed with the statistical package JMP 11.2.0 (SAS Institute, Cary, N.C., USA). Differences among numbers of hatched J2 in each treatment, and among percentage of mobile J2 per treatment (number mobile J2/total J2×100), were determined by the ANOVA, and means were compared using Tukey Kramer's adjustment for multiple comparisons (P<0.05). For percent mobile J2 on Day 2 in egg immersion Assays 1 and 2, and Day 4 with the five compounds in the J2 immersion assay, data were log10 (x+1)-transformed before analysis. Data presented are nontransformed means.

[4] = test system: Mycobacterium intracellulare ATCC 23068; experiment: Antimicrobial microplate assay (modified CLSI, AlamarBlue); type: cell-based; settings: ATCC23068, My. intracellulare
Description: as §1, with “Drug controls (Ciprofloxacin (ICN Biomedicals, Ohio, USA) for bacteria and Amphotericin B (ICN Biomedicals) for fungi) were included in each assay.” left out

[5] = test system: methicillin-resistant S. aureus ATCC 33591 (MRSA); experiment: Antimicrobial microplate assay (modified CLSI); type: cell-based; settings: Staphylococcus aureus
Description: as §1, with “Drug controls (Ciprofloxacin (ICN Biomedicals, Ohio, USA) for bacteria and Amphotericin B (ICN Biomedicals) for fungi) were included in each assay.” left out

[6] = test system: Staphylococcus aureus ATCC 29213; experiment: Antimicrobial microplate assay (modified CLSI); type: cell-based; settings: ATCC29213, S. aureus
Description: as §1, with “Drug controls (Ciprofloxacin (ICN Biomedicals, Ohio, USA) for bacteria and Amphotericin B (ICN Biomedicals) for fungi) were included in each assay.” left out

[7] = Cryptococcus neoformans, ATCC90113

C[C@@H]1[C@H](O)[C@@H](C)/C=C/C=C/C=C/C=C/C=C/C=C/C=C/[C@H](O[C@@H]2O[C@H](C)[C@@H](O)[C@H](N)[C@@H]2O)C[C@@H]2O[C@](O)(C[C@@H](O)C[C@@H](O)[C@H](O)CC[C@@H](O)C[C@@H](O)CC(=O)O[C@H]1C)C[C@H](O)[C@H]2C(=O)O [Amphotericin B, reference compound]
IC50 [1]: 0.698 µM
MIC [1]: 1.353 µM (≈ 1.25 µg/mL)

CO/C=C(/C(=O)OC)c1ccccc1Oc1cc(Oc2ccccc2C#N)ncn1 [Azoxystrobin, azoxystrobin]
zones of inhibition (Colletotrichum acutatum): 15 mm
zones of inhibition (C. fragariae): 17.5 mm
zones of inhibition (C. gloeosporioides): 17.5 mm

CCCCNC(=O)n1c(NC(=O)OC)nc2ccccc21 [Benomyl, benomyl]
zone of inhibition at 2000 µM (Colletotrichum acutatum): 17 mm
zone of inhibition at 2000 µM (C. fragariae): 20 mm
zone of inhibition at 2000 µM (C. gloeosporioides): 20 mm

O=C1C2CC=CCC2C(=O)N1SC(Cl)(Cl)Cl (stereo not shown) [Captan, captan]
zone of inhibition at 2000 µM (Colletotrichum acutatum): 11.5 mm
zone of inhibition at 2000 µM (C. fragariae): 18.5 mm
zone of inhibition at 2000 µM (C. gloeosporioides): 18.5 mm

COc1cccc(/C=C/c2cc(OC)c(C)c(OC)c2)c1 [Compound 6b, (E)-1,3-dimethoxy-5-(3-methoxystyryl)-2-methylbenzene]
effect on mobility of J2 previously hatched in water and immersed directly (in words) [2]: only 6g and 7k had an effect on J2 mobility

COc1cc(/C=C/c2ccc(Cl)cc2)cc(OC)c1C [Compound 6f, (E)-1,3-dimethoxy-5-(4-chlorostyryl)-2-methylbenzene]
Percent mobile J2, assay 1 ([3]; high rate (166.7 μg/ml)): 71.3%
Percent mobile J2, assay 1 ([3]; low rate (83.3 μg/ml)): 93.9%
effect on mobility of J2 hatched from eggs immersed in solutions (in words) [3]: some suppressive effect on mobility
effect on mobility of J2 previously hatched in water and immersed directly (in words) [2]: only 6g and 7k had an effect on J2 mobility

COc1cc(/C=C/c2ccc(Br)cc2)cc(OC)c1C [Compound 6g, (E)-1,3-dimethoxy-5-(4-bromostyryl)-2-methylbenzene]
Percent mobile J2, assay 1 ([3]; high rate (166.7 μg/ml)): 74.6%
Percent mobile J2, assay 1 ([3]; low rate (83.3 μg/ml)): 89.2%
effect on mobility of J2 hatched from eggs immersed in solutions (in words) [3]: some suppressive effect on mobility
effect on mobility of J2 previously hatched in water and immersed directly (in words) [2]: had an effect on J2 mobility

COc1cc(/C=C/c2ccc(O)cc2)cc(OC)c1C [Compound 16, (E)-4-(3,5-dimethoxy-4-methylstyryl)phenol]
IC50 [4]: 34 µM
MIC [4]: 74 µM (≈ 20 µg/mL)
IC50 [1, 7]: 5.22 µM
MIC [1, 7]: 9.25 µM (≈ 2.5 µg/mL)
IC50 [5]: 43.7 µM
MIC [5]: 74 µM (≈ 20 µg/mL)
IC50 [6]: 20.4 µM
MIC [6]: 74 µM (≈ 20 µg/mL)

Cc1cc(C2CC2)nc(Nc2ccccc2)n1 [Cyprodinil, cyprodinil]
zone of inhibition at 2000 µM (Colletotrichum acutatum): 18 mm
zone of inhibition at 2000 µM (C. fragariae): 21.5 mm
zone of inhibition at 2000 µM (C. gloeosporioides): 21.5 mm
